Test: Human HepG2 cell viability assay in 384 well format
Format: toxicity, cell-based
Parameters: dose 125 nL, time 70.5 hour; concentration not given beside the values
Conditions: HepG2 cells, read-out: Inhibition

Row | Compound | cytotoxicity at 70.5 h [%]
1 | O=C(c1ccc(C(F)(F)F)cc1)C1CCCN(C(=O)Cn2cnnn2)C1 (centres undefined) | -15.3
2 | CN1CCN(CCc2ncnn2-c2ccc3c(c2)OCO3)CC1 | 22
3 | Cc1nc[nH]c1C(=O)N1CCC2(CC1)CN(CCN(C)C)C(=O)O2 | -6.22
4 | Cc1nccn1-c1ccc(NC(=O)C2CCCN2Cc2ccoc2)cc1 (centres undefined) | -6.93
5 | Cc1nc2c(C)cccc2cc1C(=O)N1CCC2(CCN(C)CC2)C1 | 3.12
6 | CCc1cnc(C)nc1NC(C)C(=O)Nc1cc(F)ccc1C (centres undefined) | 22.4
7 | O=C(CSCC1CC1)N1CCCC2(CCC(=O)N(CC3CC3)C2)C1 (centres undefined) | -25.9
8 | Cc1nn2cc(CCNC(=O)c3cc(C(C)C)no3)nc2s1 | 12.6
9 | CC(C)N(Cc1c[nH]nc1-c1ccc2c(c1)OCO2)Cc1nccn1C | -4.64
10 | Cc1cc(N2CCC3(CCCN(CCO)C3=O)C2)nc2ccccc12 (centres undefined) | -26.3
11 | Cc1cc(CN2CCC=C(CN(C)C(=O)c3ccco3)C2)no1 | -7.11
12 | O=C(Cc1ccsc1)N1CCN(CCOc2ccccc2)CC1 | -5.67
13 | CCc1ccc(CN2CCN(c3cccc(OC)c3)C(=O)C2)nc1 | -8.23
14 | CCN(CC)C(=O)Cn1cc(C(=O)NCCc2nc(C)c(C)s2)nn1 | -2.44
15 | CN1CCN([C@H]2CCN(C(=O)c3nn(C)cc3Cl)C[C@H]2CCCO)CC1 | -10.4
16 | COC(=O)C1C=CCN1C(=O)c1cc(COc2ccccc2)[nH]n1 (centres undefined) | -5.33
17 | CCOC(=O)N1CCC2(CC1)N=C(CCC(C)C)NC2=O | -1.58
18 | CC(C)n1cnnc1CN(C)C1CCCNC1 (centres undefined) | -10.1
19 | Cc1ccsc1C(Cn1ccnc1-c1ccccc1C(=O)O)N(C)C (centres undefined) | 19.1
20 | OCCC1CN(c2nc(-c3cccnc3)nc3c2CCNCC3)CCO1 (centres undefined) | -1.49
21 | Cc1ccc2nc(CN3CCN(C4CCCCC4)C(=O)C3)cc(O)c2c1 | -0.969
22 | CC(C)c1nccc(-c2nccn2CCN(C)S(C)(=O)=O)n1 | 19
23 | Cc1nc(C(C)C)sc1C(=O)N1CCN(C2CN3CCC2CC3)CC1 (centres undefined) | -6.54
24 | CNC(=O)c1cn2cc(-c3ccccc3Cl)n(CC3CC3)c(=O)c2n1 | 15.9
25 | Cc1ccsc1CN(C)c1cc(N2CCOCC2)ncn1 | -2.06
26 | Cc1cc(N2CCC3(CCC(=O)N(CC4CC4)C3)CC2)ncn1 | -7.85
27 | CC(C)c1cc(C(=O)N2CCNCC2C(=O)NCc2ccncc2)on1 (centres undefined) | -2.19

Row | Compound | cytotoxicity at 70.5 h [%]
28 | CN1CCC(N2CCC(c3ccccc3C(=O)O)C2)CC1 (centres undefined) | -0.525
29 | CCN1CCCC(C)(C(=O)NCc2nccn2Cc2ccccc2)C1 (centres undefined) | 0.597
30 | O=C(Nc1nc(-c2ccccc2)ns1)N1CCN(C(=O)C2CC2)CC1 | -0.566
31 | C=C(C)COc1ccccc1C(=O)NCc1nc(C)cc(=O)[nH]1 | -11.2
32 | COc1ccc(OC)c(-c2nc(CN(C)Cc3nonc3C)c(C)o2)c1 | 26.4
33 | O=C(CCN1CCCC(CO)(CC2CC2)C1)NC1CCCCC1 (centres undefined) | -25.2
34 | CC(=O)N1CCCn2nc(CNS(=O)(=O)N(C)C(C)C)cc2C1 | -14.6
35 | CCOCc1nc2c(c(NC(CC)c3ccncc3)n1)CCNCC2 (centres undefined) | 1.72
36 | Cc1ccccc1[C@@H]1CN(CCCS(=O)(=O)N(C)C)C[C@H]1C(=O)O | 7.05
37 | CN(C)CCCn1ccnc1C1CCCN(c2ncc(Cl)cc2F)C1 (centres undefined) | -2.12
38 | Cn1ncc2c(N[C@@H]3C[C@@H]4CC[C@H]3C4)nc(-c3ccncc3)nc21 | -2.05
39 | c1cnnc(-c2noc(COCC3CCCO3)n2)c1 (centres undefined) | -3.34
40 | CC1(CNS(=O)(=O)c2cccc(C(=O)N3CCSCC3)c2)COC1 | -6.9
41 | Cc1nc(CC(=O)NCc2csc(N3CCCC3)n2)cs1 | -4.47
42 | CSc1ccc(CN2CCC(CCC(=O)Nc3ccccc3)CC2)cc1 | 8.45
43 | Cc1cc(C2CCC2)nc(N2CC(n3cccn3)C2)n1 | -4.39
44 | Cc1nc2ccc(CN3CC4(CCOC4)CCC3=O)cc2[nH]1 (centres undefined) | -1.05
45 | CCC[C@@H]1CN(Cc2nnc(-c3cccc(F)c3)o2)C[C@H]1NC(C)=O | -15.2
46 | O=C(c1ncc[nH]1)N1CCC(Cn2cc(-c3cccc(Cl)c3)nn2)CC1 | 20.7
47 | CCCn1ccnc1CN1CCc2[nH]cnc2C1Cc1ccccc1 (centres undefined) | -4.4
48 | N[C@@H]1c2ccccc2C2(CCN(c3cnc4ccccc4n3)CC2)[C@H]1O | -9.08
49 | CC(C)=CCN1C(=O)[C@H]2CC[C@@H]1CN(c1ncccc1C(N)=O)C2 | -9.49
50 | CC(C)(CN1CCC2(CCOCC2)CC1)N1CCOCC1 | 9.42
51 | CCc1nc(N)nc(N2CCCC3(CN(C)C(=O)O3)C2)c1C (centres undefined) | -10.4
52 | CCc1cc(N2C[C@H](C3CC3)[C@@H](N)C2)nc(N2CCOCC2)n1 | -5.91
53 | c1ccc2c(c1)CC(Cc1cc(N3CCCC3)cnn1)CO2 (centres undefined) | -7.55
54 | O=c1[nH]c(-c2ccccn2)nc2c1CCN(S(=O)(=O)N1CCCC1)C2 | -3.27

Reference: ChEMBL document CHEMBL3507680, “University of Dundee, Gates Library screen for HepG2 cell viability”
